Test results as given in PubChem BioAssay (NCI).
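Cells were grown in 96-well plates and exposed to each compound for 48 hours at five concentrations; endpoints were interpolated linearly between bracketing concentrations, or set to the highest concentration if not reached. At the TGI there is no net growth.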

Key:
Assay in all cases: NCI tumour cell line growth inhibition, 48 h
[1] = test system: 786-0 renal
[2] = test system: A549 NSCLC
[3] = test system: CCRF-CEM leukemia
[4] = test system: COLO 205 colon
[5] = test system: DLD-1 colon
[6] = test system: DMS 114 small cell lung
[7] = test system: DMS 273 small cell lung
[8] = test system: EKVX NSCLC
[9] = test system: HCT-116 colon
[10] = test system: HL-60(TB) leukemia
[11] = test system: HOP-18 NSCLC
[12] = test system: HOP-62 NSCLC
[13] = test system: HT29 colon
[14] = test system: IGROV1 ovarian
[15] = test system: K-562 leukemia
[16] = test system: KM12 colon
[17] = test system: KM20L2 colon
[18] = test system: LOX IMVI melanoma
[19] = test system: LXFL 529 NSCLC
[20] = test system: M14 melanoma
[21] = test system: M19-MEL melanoma
[22] = test system: MOLT-4 leukemia
[23] = test system: NCI-H226 lung
[24] = test system: NCI-H23 lung
[25] = test system: NCI-H460 lung
[26] = test system: NCI-H522 lung
[27] = test system: OVCAR-3 ovarian
[28] = test system: OVCAR-4 ovarian
[29] = test system: OVCAR-8 ovarian
[30] = test system: RPMI-8226 leukemia
[31] = test system: RXF 393 renal
[32] = test system: SF-268 CNS
[33] = test system: SF-295 CNS
[34] = test system: SF-539 CNS
[35] = test system: SK-MEL-28 melanoma
[36] = test system: SK-MEL-5 melanoma
[37] = test system: SK-OV-3 ovarian
[38] = test system: SN12C renal
[39] = test system: SNB-19 CNS
[40] = test system: SNB-75 CNS
[41] = test system: SNB-78 CNS
[42] = test system: SW-620 colon
[43] = test system: TK-10 renal
[44] = test system: U251 CNS
[45] = test system: UACC-62 melanoma
[46] = test system: HCC-2998 colon
[47] = test system: HCT-15 colon
[48] = test system: MALME-3M melanoma
[49] = test system: SK-MEL-2 melanoma
[50] = test system: UO-31 renal
[51] = test system: A498 renal
[52] = test system: ACHN renal
[53] = test system: BT-549 breast
[54] = test system: CAKI-1 renal
[55] = test system: DU-145 prostate
[56] = test system: HOP-92 NSCLC
[57] = test system: HS 578T breast
[58] = test system: MCF7 breast
[59] = test system: MDA-MB-231 breast
[60] = test system: MDA-MB-435
[61] = test system: MDA-N
[62] = test system: NCI/ADR-RES ovarian
[63] = test system: OVCAR-5 ovarian
[64] = test system: PC-3 prostate
[65] = test system: SR leukemia
[66] = test system: T-47D breast
[67] = test system: UACC-257 melanoma
[68] = test system: XF 498 CNS

Measured: TGI

COc1ccccc1NC(=O)CC(=O)NNCC(=O)Nc1nc(-c2ccccc2)cs1
not listed: [46] | [47] | [48] | [49] | [50] | [51] | [52] | [53] | [54] | [55] | [56] | [57] | [58] | [59] | [60] | [61] | [62] | [63] | [64] | [65] | [66] | [67] | [68]
> 100 µM: all other assays above

CCOc1ccccc1NC(=O)C(=O)C1C(=O)Nc2ccccc2S1=O (configuration not stated)
> 100 µM: [1] | [2] | [3] | [6] | [7] | [46] | [9] | [47] | [10] | [11] | [15] | [19] | [20] | [48] | [22] | [25] | [26] | [27] | [30] | [31] | [32] | [49] | [35] | [37] | [41] | [44] | [50]

CC1CCC(O)/C=C/C(=O)OC(C)C(O)/C=C/C(=O)O1 (configuration not stated)
> 79.9 µM: [3]
> 58.6 µM: [26]
> 79.5 µM: [10]
not listed: [5] | [6] | [7] | [11] | [17] | [19] | [21] | [41] | [68]
> 100 µM: all other assays above

O=C(O)/C=C/C(=O)Nc1cccc2c1-c1ccccc1C2=O
26.3 µM: [26]
19.2 µM: [34]
> 57.8 µM: [65]
> 64.1 µM: [15]
71.8 µM: [46]
> 57.5 µM: [44]
> 91.9 µM: [13]
81.3 µM: [59]
> 33.8 µM: [33]
> 58.4 µM: [40]
> 28.3 µM: [3]
32.9 µM: [49]
5.78 µM: [27]
62.6 µM: [30]
6.9 µM: [10]
> 92.1 µM: [62]
47.5 µM: [57]
36.1 µM: [4]
> 55 µM: [31]
> 81.3 µM: [55]
> 35.5 µM: [25]
12.1 µM: [61]
> 29.7 µM: [43]
> 88.9 µM: [64]
9.14 µM: [60]
not listed: [5] | [6] | [7] | [11] | [17] | [19] | [21] | [41] | [68]
> 100 µM: all other assays above

COC1=C(NC(C)=O)C(=O)c2nc3n(c2C1=O)CCC3
28.9 µM: [41]
42.4 µM: [42]
33.5 µM: [29]
32.3 µM: [38]
> 66.8 µM: [22]
34.6 µM: [7] | [63]
30.7 µM: [28]
40.3 µM: [33]
> 76 µM: [25]
31.5 µM: [36]
> 65.1 µM: [15]
53.4 µM: [47]
39.1 µM: [11]
72.7 µM: [66]
26.2 µM: [56]
31.8 µM: [18]
50.2 µM: [51]
32.4 µM: [45]
38.9 µM: [8]
36.4 µM: [1]
40.1 µM: [26]
39 µM: [24]
27.1 µM: [59]
29.3 µM: [5]
14.1 µM: [3]
34.8 µM: [48]
> 59.9 µM: [44]
> 100 µM: [17] | [64] | [37]
32.8 µM: [54] | [20]
> 66.6 µM: [43]
49.4 µM: [23]
> 30.4 µM: [10]
32.7 µM: [49]
29.4 µM: [9]
40.7 µM: [52]
6.84 µM: [61]
25 µM: [6]
67.6 µM: [39]
32.9 µM: [34] | [35]
65.8 µM: [46]
> 79.2 µM: [30]
30.4 µM: [67]
33.2 µM: [32]
30.3 µM: [27]
9.97 µM: [60]
> 86.2 µM: [65]
33.6 µM: [68]
35.8 µM: [55]
47.1 µM: [58] | [50]
41.1 µM: [62]
> 69.9 µM: [2]
31.7 µM: [31]
39.9 µM: [12]
38.6 µM: [4]
41.2 µM: [40]
35.6 µM: [14]
82.8 µM: [57]
66.2 µM: [13]
> 57.8 µM: [16]

NC(=O)c1ccc(N)nc1
0.864 µM: [31]
28.3 µM: [34]
> 229 µM: [13]
> 125 µM: [40]
> 247 µM: [12]
201 µM: [30]
394 µM: [3]
not listed: [5] | [6] | [7] | [11] | [17] | [19] | [21] | [36] | [41] | [68]
> 400 µM: all other assays above

O=C(c1ccc(Cl)cc1)N(C(=S)N1CCN(c2ccccc2)CC1)C1CCCCC1
20.8 µM: [23]
not listed: [8] | [46] | [51] | [53] | [55] | [57] | [58] | [59] | [60] | [61] | [62] | [64] | [66] | [68]
> 100 µM: all other assays above
